According to the supplement of paper PMC10331698:
± gives the standard deviation of the averaged measurements.

Assays:
Experiment in all cases: level (log10 ratio to DMSO vehicle control); higher = higher biomarker level / cell amount than vehicle control
[1] = compound: O=C(O)C(F)(F)OC(F)(F)C(F)(F)OC(F)(F)C(F)(F)OC(F)(F)C(F)(F)C(F)(F)C(F)(F)F [Perfluoro-3,6,9-trioxatridecanoic acid] (in DMSO); settings: 6700 nM
Description: (§1)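 BioMAP Diversity Plus panel of 12 human primary cell co-culture systems (3C, 4H, LPS, SAg, BT, BF4T, BE3C, CASM3C, HDF3CGF, KF3CT, MyoF, Mphg). Compounds were added 1 h before stimulation and left for 24 h (MyoF 48 h; BT 72 h for soluble read-outs or 6 d for IgG). Biomarkers were read by ELISA, cytotoxicity by SRB, PBMC viability and proliferation by Alamar Blue. Each well value was divided by the mean of 8 DMSO control wells on the same plate and log10 transformed; duplicate blinded samples were tested at 4 concentrations.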

Perfluoroundecanoic acid = compound: O=C(O)C(F)(F)C(F)(F)C(F)(F)C(F)(F)C(F)(F)C(F)(F)C(F)(F)C(F)(F)C(F)(F)C(F)(F)F [Perfluoroundecanoic acid] (in DMSO); settings: 6700 nM
Description: as §1

[2] = compound: O=C(O)C=C(C(F)(F)F)C(F)(F)F [3,3-Bis(trifluoromethyl)-2-propenoic acid] (in DMSO)
Description: as §1

[3] = compound: CN(C(=O)C(F)(F)C(F)(F)C(F)(F)F)[Si](C)(C)C [N-Methyl-N-trimethylsilylheptafluorobutyramide] (in DMSO)
Description: as §1

[4] = compound: OCCC(F)(F)C(F)(F)C(F)(F)C(F)(F)F [4:2 Fluorotelomer alcohol] (in DMSO)
Description: as §1

[5] = compound: CO[Si](C)(CCC(F)(F)C(F)(F)C(F)(F)C(F)(F)C(F)(F)C(F)(F)F)OC [Dimethoxymethyl((perfluorohexyl)ethyl)silane] (in DMSO)
Description: as §1

[6] = compound: O=C(O)C(F)(OC(F)(F)C(F)(OC(F)(F)C(F)(OC(F)(F)C(F)(F)C(F)(F)F)C(F)(F)F)C(F)(F)F)C(F)(F)F [Perfluoro-(2,5,8-trimethyl-3,6,9-trioxadodecanoic)acid] (in DMSO)
Description: as §1

[7] = compound: C[C@@H]1C[C@H]2[C@@H]3CCC4=CC(=O)C=C[C@]4(C)[C@@]3(F)[C@@H](O)C[C@]2(C)[C@@]1(O)C(=O)COP(=O)(O)O [Dexamethasone sodium phosphate] (in DMSO)
Description: as §1

Row | Test System | level (log10) [1] | level (log10) (Perfluoroundecanoic acid) | level (log10) ([2]; 6700 nM) | level (log10) ([2]; 20000 nM) | level (log10) ([2]; 60000 nM) | level (log10) ([3]; 6700 nM) | level (log10) ([3]; 20000 nM) | level (log10) ([3]; 60000 nM) | level (log10) ([4]; 6700 nM) | level (log10) ([4]; 20000 nM) | level (log10) ([4]; 60000 nM) | level (log10) ([5]; 6700 nM) | level (log10) ([5]; 20000 nM) | level (log10) ([6]; 1100 nM) | level (log10) ([6]; 3300 nM) | level (log10) ([6]; 10000 nM) | level (log10) ([7]; 1500 nM) | level (log10) ([7]; 4400 nM) | level (log10) ([7]; 13000 nM) | level (log10) ([7]; 40000 nM)
1 | CASM3C:CCL2/MCP-1 | -0.0045 ± 0.023 | 0.0065 ± 0.015 | -0.03 ± 0.0028 | -0.0425 ± 0.00071 | -0.0465 ± 0.022 | -0.0115 ± 0.0064 | -0.001 ± 0.02 | 0.0165 ± 0.013 | -0.023 ± 0.038 | -0.0055 ± 0.039 | -0.008 ± 0.05 | -0.013 | 0.02 ± 0.016 | 0 ± 0.0042 | -0.008 ± 0.0028 | 0.0055 ± 0.005 | -0.0825 ± 0.05 | -0.105 ± 0.037 | -0.113 ± 0.0042 | -0.086 ± 0.047
2 | CASM3C:CD87/uPAR | 0.0205 ± 0.018 | -0.0285 ± 0.0078 | -0.0235 ± 0.023 | -0.029 ± 0.031 | -0.031 ± 0.023 | -0.016 ± 0.042 | -0.028 ± 0.025 | -0.012 ± 0.0057 | 0.0005 ± 0.023 | 0.007 ± 0.013 | -0.003 ± 0.021 | 0.007 ± 0.011 | -0.0045 ± 0.026 | 0.0175 ± 0.022 | 0.0015 ± 0.018 | 0.0265 ± 0.0035 | 0.0255 ± 0.011 | 0.0045 ± 0.005 | -0.026 ± 0.024 | -0.0215 ± 0.076
3 | CASM3C:CD106/VCAM-1 | -0.035 ± 0.024 | -0.032 ± 0.034 | -0.152 ± 0.012 | -0.216 ± 0.021 | -0.284 ± 0.054 | -0.007 ± 0.0042 | -0.027 ± 0.0057 | -0.0175 ± 0.013 | 0.0435 ± 0.023 | -0.0035 ± 0.023 | -0.0005 ± 0.042 | -0.0265 ± 0.012 | -0.0155 ± 0.005 | 0.0125 ± 0.012 | -0.003 ± 0.031 | -0.0025 ± 0.005 | 0.117 ± 0.06 | 0.11 ± 0.049 | 0.0875 ± 0.016 | 0.076 ± 0.054
4 | CASM3C:CD141/Thrombomodulin | -0.0345 ± 0.0064 | -0.06 ± 0.12 | 0.03 ± 0.0071 | 0.0275 ± 0.0064 | 0.026 ± 0.0028 | -0.0195 ± 0.025 | -0.027 ± 0.011 | -0.011 ± 0.0042 | -0.018 ± 0.075 | 0.0295 ± 0.035 | 0.0295 ± 0.043 | -0.008 ± 0.0057 | -0.015 ± 0.021 | 0.0045 ± 0.036 | 0.018 ± 0.047 | 0.014 ± 0.027 | 0.107 ± 0.11 | 0.0895 ± 0.067 | 0.073 ± 0.041 | 0.123 ± 0.011
5 | CASM3C:CD142/Tissue Factor | 0.013 ± 0.02 | -0.066 ± 0.041 | 0.055 ± 0.018 | -0.009 ± 0.041 | -0.0635 ± 0.06 | -0.021 ± 0.016 | -0.012 ± 0.0028 | 0.0135 ± 0.026 | -0.014 ± 0.079 | -0.028 ± 0.0014 | 0.0225 ± 0.046 | -0.001 ± 0.011 | -0.0075 ± 0.005 | 0.0095 ± 0.018 | 0.0085 ± 0.011 | 0.0025 ± 0.015 | 0.101 ± 0.034 | 0.099 ± 0.042 | 0.0875 ± 0.023 | 0.079 ± 0.0028
6 | CASM3C:CXCL8/IL-8 | 0.002 ± 0.0085 | 0.0005 ± 0.0021 | -0.0025 ± 0.0021 | -0.0045 ± 0.005 | 0.0125 ± 0.022 | -0.006 | -0.006 ± 0.0028 | 0.008 ± 0.0042 | -0.002 ± 0.0028 | 0.0035 ± 0.026 | 0.019 ± 0.031 | -0.004 | 0.004 ± 0.0085 | -0.0025 ± 0.021 | -0.015 ± 0.025 | 0.0105 ± 0.0035 | -0.075 ± 0.044 | -0.0815 ± 0.023 | -0.092 ± 0.0057 | -0.084 ± 0.0042
7 | CASM3C:CXCL9/MIG | -0.01 ± 0.0014 | -0.027 ± 0.0099 | -0.059 ± 0.051 | -0.0845 ± 0.022 | -0.0965 ± 0.087 | -0.0095 ± 0.005 | -0.0065 ± 0.015 | 0.008 ± 0.03 | 0.008 ± 0.0014 | 0.0085 ± 0.029 | 0.0245 ± 0.056 | -0.012 ± 0.017 | -0.003 ± 0.013 | 0.0055 ± 0.0021 | -0.0065 ± 0.0092 | 0.0075 ± 0.005 | 0.0525 ± 0.037 | 0.038 ± 0.0085 | 0.0335 ± 0.0021 | 0.0595 ± 0.025
8 | CASM3C:HLA-DR | -0.0005 ± 0.0078 | -0.007 ± 0.017 | -0.121 ± 0.0028 | -0.167 ± 0.0085 | -0.181 ± 0.067 | -0.0175 ± 0.0021 | -0.0105 ± 0.012 | 0.013 ± 0.011 | -0.0195 ± 0.049 | -0.022 ± 0.028 | 0.002 ± 0.037 | -0.012 ± 0.021 | -0.0005 ± 0.0035 | 0.0045 ± 0.019 | -0.004 ± 0.0028 | 0.0165 ± 0.012 | 0.0495 ± 0.06 | 0.0425 ± 0.022 | 0.02 ± 0.013 | 0.0355 ± 0.023
9 | CASM3C:IL-6 | -0.0055 ± 0.061 | 0.0025 ± 0.0092 | -0.097 ± 0.045 | -0.148 ± 0.0071 | -0.189 ± 0.026 | -0.0165 ± 0.0035 | -0.0105 ± 0.0035 | 0.0035 ± 0.049 | -0.0195 ± 0.005 | -0.023 ± 0.0099 | -0.016 ± 0.054 | -0.0225 ± 0.00071 | 0.013 ± 0.051 | -0.016 ± 0.048 | -0.0155 ± 0.043 | -0.0125 ± 0.018 | -0.166 ± 0.096 | -0.232 ± 0.023 | -0.246 ± 0.015 | -0.189 ± 0.092
10 | CASM3C:LDLR | -0.029 ± 0.011 | -0.0265 ± 0.016 | -0.008 ± 0.011 | -0.0175 ± 0.0064 | -0.022 ± 0.016 | -0.006 ± 0.0099 | -0.0055 ± 0.005 | 0.0255 ± 0.035 | -0.0485 ± 0.026 | -0.034 ± 0.011 | -0.0455 ± 0.037 | -0.0135 ± 0.00071 | 0.0165 ± 0.029 | 0.0065 ± 0.011 | 0.004 ± 0.0014 | 0.0025 ± 0.021 | 0.05 ± 0.0057 | 0.03 ± 0.033 | 0.0065 ± 0.03 | 0.031 ± 0.05
11 | CASM3C:M-CSF | 0.0215 ± 0.013 | 0.019 ± 0.0085 | -0.0435 ± 0.0035 | -0.044 ± 0.02 | -0.068 ± 0.033 | -0.011 ± 0.0028 | -0.018 ± 0.0042 | 0.0145 ± 0.036 | -0.085 ± 0.027 | -0.048 ± 0.0028 | 0.0105 ± 0.0035 | -0.012 ± 0.013 | 0.0045 ± 0.043 | -0.0285 ± 0.029 | 0.0055 ± 0.016 | 0.002 ± 0.0014 | 0.157 ± 0.031 | 0.155 ± 0.023 | 0.141 ± 0.0085 | 0.151 ± 0.0092
12 | CASM3C:PAI-I | 0.0015 ± 0.005 | 0.005 ± 0.0057 | -0.0115 ± 0.012 | -0.019 ± 0.0057 | -0.0145 ± 0.012 | 0.0015 ± 0.021 | -0.003 ± 0.0071 | 0.0005 ± 0.0078 | -0.0085 ± 0.011 | 0.001 ± 0.017 | -0.0015 ± 0.021 | -0.0125 ± 0.022 | -0.0005 ± 0.011 | -0.002 ± 0.0014 | -0.0005 ± 0.0035 | 0.009 ± 0.0099 | 0.011 ± 0.018 | 0.0125 ± 0.018 | 0.0145 ± 0.015 | 0.015 ± 0.0028
13 | CASM3C:Proliferation | -0.012 ± 0.016 | 0.0285 ± 0.011 | -0.0475 ± 0.0035 | -0.0555 ± 0.015 | -0.177 ± 0.06 | -0.017 ± 0.03 | -0.0095 ± 0.00071 | 0.039 ± 0.033 | 0.0185 ± 0.03 | 0.0335 ± 0.044 | 0.0185 ± 0.028 | 0.0455 ± 0.0078 | 0.041 ± 0.061 | 0.011 ± 0.0014 | -0.008 ± 0.016 | -0.018 ± 0.023 | 0.084 ± 0.025 | 0.033 ± 0.024 | 0.062 ± 0.025 | 0.059 ± 0.0042
14 | CASM3C:SRB | 0.0025 ± 0.00071 | 0.0025 ± 0.0035 | 0.0145 ± 0.016 | -0.0075 ± 0.0021 | -0.027 | -0.001 ± 0.0042 | 0.0085 ± 0.012 | -0.002 ± 0.011 | 0.0045 ± 0.0035 | -0.008 | 0.0015 ± 0.0092 | -0.006 ± 0.0042 | -0.011 ± 0.0028 | 0.0035 ± 0.005 | -0.006 ± 0.0071 | 0.0005 ± 0.0035 | -0.0005 ± 0.016 | -0.008 ± 0.017 | -0.013 ± 0.0057 | -0.0115 ± 0.00071
